Reference: patent publication US11565231B2, “Substrates, peptide arrays, and methods” (Vibrant Holdings, LLC, priority 2012, dated 2023)

Columns and labels:
[1] = system: antibodies of clinically proven celiac positive samples; experiment: Immunological binding assay on Periphilin-1 overlapping peptide array; conditions: Periphilin-1 spanned as overlapping 12 amino acid peptides, signals significant when exceeding background (400) by a factor of 50
Experimental: Immunological binding assays were performed on an array produced using the materials and methods described in the Examples above. The samples that were used to run the assays included clinically proven celiac positive samples.
The immunoactive regions of Periphilin-1 were determined. With reference to FIG. 17, the microarray substrate including the Periphilin-1 sequence split into 12 amino acid length peptide sequences is shown. […] Determination of background noise, background subtraction, and identification of signals that exceed background noise routine and well within the level of ordinary skill in the microarray binding arts. In this example, the mean background signal intensity was estimated to be 400 and signals were determined to be significant when they exceeded background by a factor of 50.

[2] = system: IgA from a celiac positive sample; experiment: Antibody assay (B peptides) on peptide array, IgA binding
Experimental: A peptide array comprising peptide fragment sequences synthesized on the surface of the array was generated according to the methods described above. The peptide array was developed to test all 12 mer sequences from alpha-gliadin, including sequences where glutamine was substituted with glutamate, as described above (see, e.g., FIGS. 15 and 16). A reduction reaction was performed to remove the disulfide bonds that exist between cysteine residues. This reaction was not performed when epitopes involving cyclic peptides based on cysteine bonds are needed. Dithiothreitol was prepared in a concentration of 0.1 g per 20 mL PBS-Tween (PBST). The peptide microarray (herein referred to as the peptide chip) was immersed in the DTT solution and placed in a nitrogen atmosphere at a pressure of 40 Pa at room temperature for 1 hour. […]
The peptide array was then analyzed to detect antibody/peptide complexes. […]
A set of 12-mer sequences generating weakly or strongly positive binding signals to celiac positive samples was compiled (see, e.g., Table A in Appendix A of U.S. Provisional Application No. 61/761,347, incorporated herein by reference). Using a computer programmed to undertake sequence analysis, subsequences present within this set of 12-mer sequences were determined using a series of sliding windows having a minimum length of 3 amino acids and maximum length of 11 amino acids. […]

Row | Substance | subsequence identified for antibody binding [1] | immune dominant subsequence (epitope) for antibody response amongst celiac positive subjects ([2]; alpha-gliadin 12-mer array incl. deamidated sequences, celiac positive samples) | sample binding hits ([2]; celiac-positive serum sample, IgA binding, FIG. 18, Row QPE, Column QPF) [%]
1 | PQQPEQII | key subsequence for antibody binding | – | –
2 | QPEQPF [QPE-QPF] | – | key immune dominant subsequence | 91.78
